Measured values from patent publication US20120157477A1, “REVERSAL OF L-DOPA-INDUCED DYSKINESIA BY NEURONAL NICOTINIC RECEPTOR LIGANDS” (TARGACEPT, INC., priority 2009, published 2012).
“Also recorded” adds a separate entry of the source.

How the values were obtained:
[1] = tested on: L-dopa-treated unilateral 6-hydroxydopamine-lesioned rats; test: L-dopa-induced AIMs (dyskinesia) in unilateral 6-OHDA-lesioned rats; format: in vivo, rat
Method: The subtype selective NNR agonist Compound A, stimulates […] and to a lesser extent α6* NNRs. […] Experiments were performed using male Sprague-Dawley rats that were unilaterally lesioned with 6-OHDA (Sigma Chemical Co., St. Louis, Mo.) as previously described (Cenci et al., 1998; Cenci et al., 2002). 6-OHDA was dissolved in 0.02% ascorbic acid/saline at a concentration of 3 μg/μl. Compound A was systemically infused via osmotic minipumps (Alzet model 2006; Durect Corporation, Cupertino, Calif., USA), which delivered drug at a rate of 3.6 μl/day for 6 wk. […] Pumps were pre-filled with either sterilized water or Compound A base in water (pH 7.0) to provide the required doses (0.03, 0.1, 0.3 mg/kg/d). The minipumps were subcutaneously implanted along the dorsal aspect of the neck between the shoulder blades, according to the manufacturer's instruction, under isofluorane anesthesia. After implantation, rats were administered buprenorphine (0.02 mg/kg sc) for post-operative pain. Two weeks after initiation of drug treatment, the rats were administered single daily subcutaneous injections of 6 to 8 mg/kg L-dopa methyl ester plus 15 mg/kg benserazide. Two μl aliquots were stereotaxically injected at each of two sites for a total of 8 to 12 μg into the right ascending dopamine fiber bundle. Infusion of 6-OHDA into the target area was over a 2-min period, with the cannula maintained at the site of injection for a further 2 min. Two to three weeks after lesioning, rats were tested for drug-induced rotational behavior in an automated behavioral measurement apparatus (ROTOMAX, AccuScan Instruments Inc. Columbus, Ohio, USA). Each rat was placed in a cylindrical glass chamber for 30 min for acclimatization, after which 4.0 mg/kg amphetamine (Sigma Chemical Co., St. Louis, Mo.) was administered intraperitoneally (ip). Amphetamine-induced rotational behavior was monitored for 90 min, with rats making at least 200 ipsilateral turns/90 min used for further study.
L-dopa-induced AIMs were determined as indicated. See FIG. 1 for experiment dosing and testing regimen. Behavioral testing was done in the morning starting between 9 and 10 AM. Three different AIMs subtypes were measured including (1) axial dystonia, contralateral twisted posturing of the neck and upper body; (2) abnormal orolingual movements, stereotyped jaw movements and contralateral tongue protrusion; and (3) abnormal forelimb movements, repetitive rhythmic jerks or dystonic posturing of the contralateral forelimb and/or grabbing movements of the contralateral paw. See, for example, Carta M, Lindgren HS, Lundblad M, Stancampiano R, Fadda F, Cenci M A (2006), Role of Striatal L-DOPA in the Production of Dyskinesia in 6-hydroxydopamine Lesioned Rats. J Neurochem 96:1718-172; Cenci M A, Lee C S, Bjorklund A (1998) L-DOPA-induced dyskinesia in the rat is associated with striatal overexpression of prodynorphin- and glutamic acid decarboxylase mRNA; Eur J Neurosci 10:2694-2706; Cenci M A, Whishaw I Q, Schallert T (2002) Animal models of neurological deficits: how relevant is the rat? Nat Rev Neurosci 3:574-579; Bordia, T., Campos, C., Huang, L. Z. & Quik, M., “Continuous And Intermittent Nicotine Treatment Reduces L-3,4-Dihydroxyphenylalanine (L-Dopa)-Induced Dyskinesias In A Rat Model Of Parkinson's Disease,” J Pharmacol Exp Ther 327: 239-47 (2008)). Rats were scored on a scale from 0 to 4 for each of these three AIM subtypes as follows: 1=occasional; 2=frequent; 3=continuous but interrupted by sensory distraction; and 4=continuous, severe, not interrupted by sensory distraction. Animals were evaluated for AIMs for an initial 20 min baseline period, as well as for 3 h following L-dopa injection by a blinded rater. Assessment of the different subtypes of AIMs was done over 20 min sessions, thus yielding a total of 9 sessions of testing per animals. The maximum possible score for each animal was thus 108 (maximum score per session=12; number of sessions over 3 h=9). […]

Parkinsonian rats = test: Limb use asymmetry (cylinder) test of motor function in Parkinsonian rats; format: in vivo, rat
Method: Because drugs that reduce AIMs may worsen Parkinsonism, the effect of Compound A (PD1) was also tested on motor function in Parkinsonian rats (see FIG. 3) using the limb use asymmetry or cylinder test. The cylinder test was used as an index of behavioral function after unilateral nigrostriatal damage, with explorative activity analyzed as previously described. Animals were placed in a transparent cylinder (20 cm diameter×30 cm height) or in a transparent cage and evaluated over a 5 min period. A mirror was placed behind the cylinder/cage to allow the raters to view forelimb movements when the rat was turned away from the rater. Wall exploration was expressed in terms of the percentage of use of the impaired forelimb (contralateral to the lesion) compared to the total number of limb use movements. Two raters, one blinded to the treatment status of the rats, performed the ratings. Correlation analyses yielded a high inter-rater reliability (R=0.99). […] The rat is placed in a transparent cylinder, which results in vertical exploration and the percentage of contact of the unimpaired and impaired forelimb against the cylinder evaluated (Cenci, M. A. and M. Lundblad, “Post-Versus Presynaptic Plasticity In L-Dopa-lnduced Dyskinesia,”. J Neurochem, 99: 381-392 (2006); Tillerson, J. L. et al., “Forced Limb-Use Effects On The Behavioral And Neurochemical Effects Of 6-Hydroxydopamine,” J Neurosci 21, 4427-35 (2001); and Meredith, G. E. & U. J. Kang, “Behavioral Models Of Parkinson's Disease In Rodents: A New Look At An Old Problem,” Mov Disord, 21: 1595-606 (2006).

rats = test: Safety studies in rats; format: in vivo, rat
rodents = test: Toxicological studies, rodents; format: in vivo
dogs = test: Toxicological studies, dogs; format: in vivo
primates = test: Toxicological studies, primates; format: in vivo
[2] = tested on: Parkinsonian nonhuman primates; details: cited from earlier work
Parkinsonian rodents = details: cited from earlier work
[3] = 0.1 or 0.3 mg/kg/d via subcutaneous minipump

Compound | total AIMs ([1]; 0.1 mg/kg/day, second and third assessments) | total AIMs ([1]; 0.3 mg/kg/day, fourth assessment) | L-dopa-induced AIMs, total or some subset (axial, oral and/or forelimb) ([1]; 0.1 and 0.3 mg/kg/day, across multiple assessments, P<0.05 vs control (FIG. 2)) | reduction in oral versus axial AIMs [1, 3] | reduction of total L-dopa-induced AIMs [1, 3] | total AIMs ([1]; first and fifth AIMs assessments) | adverse effects (body weight, body temperature, grooming, urination, defecation, secretion) ([1]; minipump treatment in the AIMs study) | Parkinsonism / motor function, trend (Parkinsonian rats; lesioned rats, either dose tested) | baseline motor function (Parkinsonian rats; off L-dopa, either dose tested, across the experiment) | enhanced limb use with L-dopa treatment (Parkinsonian rats; on L-dopa, either dose tested, across the experiment) | parkinsonism, asymmetric forelimb or cylinder test (FIG. 3) (Parkinsonian rats; two doses, Off or On L-dopa, several occasions) | detrimental effects (rats; acute free base oral doses up to 30 mg/kg) | behavioral sensitization (rats; rats) | locomotor activity (rats; rats) | incidence of peripheral side effects (rodents) | incidence of peripheral side effects (dogs) | incidence of peripheral side effects (primates) | reduction of L-dopa-induced dyskinetic-like movements [2] | reduction of L-dopa-induced dyskinetic-like movements (Parkinsonian rodents; Parkinsonian rodents) | L-dopa-induced AIMs (Parkinsonian rodents; rats, given continuously via osmotic minipump)
C(=C\[C@H]1CCNC1)/c1cncnc1 [Compound A, (R)-5-((E)-2-pyrrolidin-3-ylvinyl)pyrimidine] | significant decline in total AIMs | significant decline in total AIMs | reduce L-dopa-induced AIMs; also recorded: significant reduction | more pronounced reduction in oral than axial AIMs | ~25% | trends for declines in total AIMs | no detectable adverse effects | small trend for improvement; also recorded: trend for improving Parkinsonism | does not worsen baseline motor function | nor does it worsen the enhanced limb use | do not worsen parkinsonism | not associated with any significant detrimental effects | no behavioral sensitization | did not increase locomotor activity | low incidence of peripheral side effects | low incidence of peripheral side effects | low incidence of peripheral side effects | – | – | –
CN1CCCC1c1cccnc1 (centres unmarked) [nicotine] | – | – | – | – | – | – | – | – | – | – | – | – | – | – | – | – | – | ~50% | ~50% | most effectively reduced L-dopa-induced AIMs
